Experimental data as given in patent US20230286958A1, “PLASMA KALLIKREIN INHIBITORS” (Merck Sharp & Dohme LLC, priority 2020, published 2023).

Legend:
[1] = target: Human plasma kallikrein (Homo sapiens (Human), UniProt P03952); assay: Kallikrein Assay (fluorogenic substrate Acetyl-K-P-R-AFC); type: biochemical; conditions: Plasma Kallikrein (PKal)
Description: (§1) The effectiveness of a compound of the present invention as an inhibitor of Kallikrein can be determined using a relevant purified serine protease, and an appropriate synthetic substrate. The rate of hydrolysis of the chromogenic or fluorogenic substrate by the relevant serine protease was measured both in the absence and presence of compounds of the present invention. Assays were conducted at room temperature or at 37° C. […] A decrease in the rate of fluorescence change in the presence of inhibitor is indicative of enzyme inhibition. Such methods are known to one skilled in the art. The results of this assay are expressed as the half-maximal inhibitory concentrations (IC50), or the inhibitory constant, Ki.
Kallikrein determinations were made in 50 mM HEPES buffer at pH 7.4 containing 150 mM NaCl, 5 mM CaC12, and 0.1% PEG 8000 (polyethylene glycol; Fisher Scientific). Determinations were made using purified Human plasma kallikrein at a final concentration of 0.5 nM (Enzyme Research Laboratories) and the synthetic substrate, Acetyl-K-P-R-AFC (Sigma # C6608) at a concentration of […].
Times required to achieve equilibration between enzyme and inhibitor were determined in control experiments. […] IC50 was determined by inflection point from a four parameter logistic curve fit. Ki was calculated using the Cheng Prusoff equation, Ki = IC50/(1+([S]/Km)).

[2] = target: human Factor XIa (Homo sapiens (Human), UniProt P03951); assay: Factor XIa Assay (fluorogenic substrate GPR-AFC); type: biochemical; conditions: Factor XIa (FXIa)
Sequence of human Factor XIa (P03951 388-625 limits assumed): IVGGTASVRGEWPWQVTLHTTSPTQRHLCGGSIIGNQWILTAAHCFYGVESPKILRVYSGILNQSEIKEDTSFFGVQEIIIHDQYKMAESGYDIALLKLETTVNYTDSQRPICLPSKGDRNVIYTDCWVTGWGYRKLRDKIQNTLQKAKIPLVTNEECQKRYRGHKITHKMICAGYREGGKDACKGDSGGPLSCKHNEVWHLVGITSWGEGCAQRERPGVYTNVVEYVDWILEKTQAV
Sequence of human Factor XIa (P03951 19-387 partner limits assumed): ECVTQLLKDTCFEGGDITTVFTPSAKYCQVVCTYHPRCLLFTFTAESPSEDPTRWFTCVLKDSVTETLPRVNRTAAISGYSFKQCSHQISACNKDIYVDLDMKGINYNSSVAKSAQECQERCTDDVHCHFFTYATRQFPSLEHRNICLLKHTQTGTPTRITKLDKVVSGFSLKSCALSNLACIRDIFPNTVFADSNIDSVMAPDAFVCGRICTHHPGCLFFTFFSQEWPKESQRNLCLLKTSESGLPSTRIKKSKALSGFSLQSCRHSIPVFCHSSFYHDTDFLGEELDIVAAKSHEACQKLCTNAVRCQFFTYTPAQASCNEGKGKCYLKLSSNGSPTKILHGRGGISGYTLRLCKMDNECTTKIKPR
Description: as §1, with “Coagulation Factor XIa” for “Kallikrein”
Compounds were pre-incubated for 30 minutes at 25° C. with human (0.04 nM) Factor XIa in 50 mM HEPES buffer with 150 mM sodium chloride, 5 mM calcium chloride, 0.1% PEG 8000, pH 7.4. […] The % inhibition for each data point was calculated from the data and analyzed using the log (inhibitor) vs. response four parameters equation to determine the half-maximal inhibitory concentrations (IC50). The IC50 were converted to equilibrium inhibitory constants (Ki) using the Cheng-Prusoff equation.

Sequence of Human plasma kallikrein (P03952 391-638): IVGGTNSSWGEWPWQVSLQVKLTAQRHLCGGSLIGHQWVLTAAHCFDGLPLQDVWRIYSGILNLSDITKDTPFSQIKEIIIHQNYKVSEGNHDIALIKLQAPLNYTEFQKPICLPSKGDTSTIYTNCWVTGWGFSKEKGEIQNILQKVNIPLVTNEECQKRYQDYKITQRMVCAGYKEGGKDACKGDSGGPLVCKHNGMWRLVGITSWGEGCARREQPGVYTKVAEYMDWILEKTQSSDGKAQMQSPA
Sequence of Human plasma kallikrein (P03952 20-390 partner): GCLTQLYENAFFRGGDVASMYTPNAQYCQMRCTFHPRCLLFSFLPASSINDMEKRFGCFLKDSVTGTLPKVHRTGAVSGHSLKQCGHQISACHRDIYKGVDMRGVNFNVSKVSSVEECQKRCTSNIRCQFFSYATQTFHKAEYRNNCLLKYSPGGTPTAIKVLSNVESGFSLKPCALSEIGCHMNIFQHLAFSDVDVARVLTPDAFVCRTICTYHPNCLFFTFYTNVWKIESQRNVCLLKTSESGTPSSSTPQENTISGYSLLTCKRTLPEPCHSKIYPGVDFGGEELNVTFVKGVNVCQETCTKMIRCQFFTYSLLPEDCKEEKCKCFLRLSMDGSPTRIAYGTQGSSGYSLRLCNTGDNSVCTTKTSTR

Cc1ncc(-c2c(C(F)F)ccc(Cl)c2F)nc1C(=O)Nc1cnn(C(C)c2cnc(N3C[C@H]4C[C@H]4C3=O)c(F)c2)c1 (single isomer, unassigned) [Example 52, 6-(3-Chloro-6-(difluoromethyl)-2-fluorophenyl)-N-(1-((R or S)-1-(S-fluoro-6-((1R,5S)-2-oxo-3-azabicyclo[3.1.0]hexan-3-yl)pyridin-3-yl)ethyl)-1H-pyrazol-4-yl)-3-methylpyrazine-2-carboxamide]
IC50 [1]: 1.1 nM
IC50 [2]: 4830 nM

Cc1nc(N2C[C@H]3C[C@H]3C2=O)cnc1C(C)n1cc(NC(=O)c2cncc(-c3c(C(F)F)ccc(Cl)c3F)n2)cn1 (single isomer, unassigned) [Example 53, 6-(3-Chloro-6-(difluoromethyl)-2-fluorophenyl)-N-(1-((S or R)-1-(3-methyl-5-((1R,5S)-2-oxo-3-azabicyclo[3.1.0]hexan-3-yl)pyrazin-2-yl)ethyl)-1H-pyrazol-4-yl)pyrazine-2-carboxamide]
IC50 [1]: 38.3 nM
IC50 [2]: 6630 nM

CCc1nc(C(C)n2cc(NC(=O)c3cncc(-c4c(C(F)F)ccc(Cl)c4F)n3)cn2)cnc1N1C[C@H]2C[C@H]2C1=O (single isomer, unassigned) [Example 55, 6-(3-Chloro-6-(difluoromethyl)-2-fluorophenyl)-N-(1-((S or R)-1-(6-ethyl-5-((1R,5S)-2-oxo-3-azabicyclo[3.1.0]hexan-3-yl)pyrazin-2-yl)ethyl)-1H-pyrazol-4-yl)pyrazine-2-carboxamide]
IC50 [1]: 5.8 nM
IC50 [2]: 5360 nM

CCc1nc(C(C)n2cc(NC(=O)c3cncc(-c4c(C(F)F)ccc(Cl)c4F)n3)cn2)cnc1N1C[C@H]2C[C@H]2C1=O (single isomer, unassigned) [Example 56, 6-(3-Chloro-6-(difluoromethyl)-2-fluorophenyl)-N-(1-((R or S)-1-(6-ethyl-5-((1R,5S)-2-oxo-3-azabicyclo[3.1.0]hexan-3-yl)pyrazin-2-yl)ethyl)-1H-pyrazol-4-yl)pyrazine-2-carboxamide]
IC50 [1]: 1.5 nM
IC50 [2]: > 10000 nM

Cc1nc(C(C)n2cc(NC(=O)c3nc(-c4c(C(F)F)ccc(Cl)c4F)cnc3C)cn2)ccc1N1C[C@H]2C[C@H]2C1=O (single isomer, unassigned) [Example 58, 6-(3-Chloro-6-(difluoromethyl)-2-fluorophenyl)-3-methyl-N-(1-((S or R)-1-(6-methyl-5-((1R,5S)-2-oxo-3-azabicyclo[3.1.0]hexan-3-yl)pyridin-2-yl)ethyl)-1H-pyrazol-4-yl)pyrazine-2-carboxamide]
IC50 [1]: 0.6 nM
IC50 [2]: > 10000 nM

Cc1nc(C(C)n2cc(NC(=O)c3nc(-c4c(C(F)F)ccc(Cl)c4F)cnc3C)cn2)ccc1N1C[C@H]2C[C@H]2C1=O (single isomer, unassigned) [Example 59, 6-(3-Chloro-6-(difluoromethyl)-2-fluorophenyl)-3-methyl-N-(1-((R or S)-1-(6-methyl-5-((1R,5S)-2-oxo-3-azabicyclo[3.1.0]hexan-3-yl)pyridin-2-yl)ethyl)-1H-pyrazol-4-yl)pyrazine-2-carboxamide]
IC50 [1]: 3.2 nM
IC50 [2]: > 10000 nM

Cc1nc(C(C)n2cc(NC(=O)c3cncc(-c4c(C(F)F)ccc(Cl)c4F)n3)cn2)ccc1N1C[C@H]2C[C@H]2C1=O (single isomer, unassigned) [Example 60, 6-(3-Chloro-6-(difluoromethyl)-2-fluorophenyl)-N-(1-((S or R)-1-(6-methyl-5-((1R,5S)-2-oxo-3-azabicyclo[3.1.0]hexan-3-yl)pyridin-2-yl)ethyl)-1H-pyrazol-4-yl)pyrazine-2-carboxamide]
IC50 [1]: 5.5 nM
IC50 [2]: > 10000 nM

Cc1nc(C(C)n2cc(NC(=O)c3cncc(-c4c(C(F)F)ccc(Cl)c4F)n3)cn2)ccc1N1C[C@H]2C[C@H]2C1=O (single isomer, unassigned) [Example 61, 6-(3-Chloro-6-(difluoromethyl)-2-fluorophenyl)-N-(1-((R or S)-1-(6-methyl-5-((1R,5S)-2-oxo-3-azabicyclo[3.1.0]hexan-3-yl)pyridin-2-yl)ethyl)-1H-pyrazol-4-yl)pyrazine-2-carboxamide]
IC50 [1]: 0.7 nM
IC50 [2]: > 10000 nM

Cc1cc(N2C[C@H]3C[C@H]3C2=O)cnc1C(C)n1cc(NC(=O)c2cncc(-c3c(C(F)F)ccc(Cl)c3F)n2)cn1 (single isomer, unassigned) [Example 62, 6-(3-Chloro-6-(difluoromethyl)-2-fluorophenyl)-N-(1-((S or R)-1-(3-methyl-5-((1R,5S)-2-oxo-3-azabicyclo[3.1.0]hexan-3-yl)pyridin-2-yl)ethyl)-1H-pyrazol-4-yl)pyrazine-2-carboxamide]
IC50 [1]: 4.2 nM
IC50 [2]: 7630 nM

Cc1cc(C(C)n2cc(NC(=O)c3cncc(-c4c(C(F)F)ccc(Cl)c4F)n3)cn2)cnc1N1C[C@H]2C[C@H]2C1=O (single isomer, unassigned) [Example 66, 6-(3-Chloro-6-(difluoromethyl)-2-fluorophenyl)-N-(1-((S or R)-1-(5-methyl-6-((1R,5S)-2-oxo-3-azabicyclo[3.1.0]hexan-3-yl)pyridin-3-yl)ethyl)-1H-pyrazol-4-yl)pyrazine-2-carboxamide]
IC50 [1]: 0.6 nM
IC50 [2]: 1630 nM

Cc1cc(C(C)n2cc(NC(=O)c3cncc(-c4c(C(F)F)ccc(Cl)c4F)n3)cn2)cnc1N1C[C@H]2C[C@H]2C1=O (single isomer, unassigned) [Example 67, 6-(3-Chloro-6-(difluoromethyl)-2-fluorophenyl)-N-(1-((R or S)-1-(5-methyl-6-((1R,5S)-2-oxo-3-azabicyclo[3.1.0]hexan-3-yl)pyridin-3-yl)ethyl)-1H-pyrazol-4-yl)pyrazine-2-carboxamide]
IC50 [1]: 2.1 nM
IC50 [2]: 389 nM

Cc1cc(N2C[C@H]3C[C@H]3C2=O)ncc1C(C)n1cc(NC(=O)c2cncc(-c3c(C(F)F)ccc(Cl)c3F)n2)cn1 (single isomer, unassigned) [Example 68, 6-(3-Chloro-6-(difluoromethyl)-2-fluorophenyl)-N-(1-((S or R)-1-(4-methyl-6-((1R,5S)-2-oxo-3-azabicyclo[3.1.0]hexan-3-yl)pyridin-3-yl)ethyl)-1H-pyrazol-4-yl)pyrazine-2-carboxamide]
IC50 [1]: 1.1 nM
IC50 [2]: 5250 nM

CC(c1cnc(N2CC3CC3C2=O)nc1)n1cc(NC(=O)c2cncc(-c3c(C(F)(F)F)ccc(Cl)c3F)n2)cn1 (single isomer, unassigned) [Example 70, 6-(3-Chloro-2-fluoro-6-(trifluoromethyl)phenyl)-N-(1-((S orR)-1-(2-((1R,5S or 1S,5R)-2-oxo-3-azabicyclo[3.1.0]hexan-3-yl)pyrimidin-5-yl)ethyl)-1H-pyrazol-4-yl)pyrazine-2-carboxamide]
IC50 [1]: 18.6 nM
IC50 [2]: 7680 nM

CC(c1cnc(N2CC3CC3C2=O)nc1)n1cc(NC(=O)c2cncc(-c3c(OC(F)F)ccc(Cl)c3F)n2)cn1 (single isomer, unassigned) [Example 71, 6-(3-Chloro-6-(difluoromethoxy)-2-fluorophenyl)-N-(1-((S or R)-1-(2-((1R,5S or 1S,5R)-2-oxo-3-azabicyclo[3.1.0]hexan-3-yl)pyrimidin-5-yl)ethyl)-1H-pyrazol-4-yl)pyrazine-2-carboxamide]
IC50 [1]: 39 nM
IC50 [2]: 4300 nM

CC(c1cnc(N2CC3CC3C2=O)nc1)n1cc(NC(=O)c2cncc(-c3c(OC(F)F)ccc(Cl)c3F)n2)cn1 (single isomer, unassigned) [Example 72, 6-(3-Chloro-6-(difluoromethoxy)-2-fluorophenyl)-N-(1-((R or S)-1-(2-((1R,5S or 1S,5R)-2-oxo-3-azabicyclo[3.1.0]hexan-3-yl)pyrimidin-5-yl)ethyl)-1H-pyrazol-4-yl)pyrazine-2-carboxamide]
IC50 [1]: 3.7 nM
IC50 [2]: 2740 nM

CC(c1cnc(N2CC3CC3C2=O)nc1)n1cc(NC(=O)c2cncc(-c3c(OC(F)F)ccc(Cl)c3F)n2)cn1 (single isomer, unassigned) [Example 73, 6-(3-Chloro-6-(difluoromethoxy)-2-fluorophenyl)-N-(1-((S or R)-1-(2-((1S,5R or 1R,5S)-2-oxo-3-azabicyclo[3.1.0]hexan-3-yl)pyrimidin-5-yl)ethyl)-1H-pyrazol-4-yl)pyrazine-2-carboxamide]
IC50 [1]: 23.1 nM
IC50 [2]: 2270 nM
